Experiments:
Autotaxin [1] = target: T1, Autotaxin (Homo sapiens, UniProt Q13822); assay: Inhibition of human recombinant ATX using FS-3 as substrate incubated in dark for 45 mins by fluorescence assay
Autotaxin [2] = target: T1, Autotaxin; assay: Inhibition of ATX in human plasma assessed as decrease in hydrolysis of lysophosphatidylcholine by measuring choline release after 24 hrs by horseradish peroxidase/choline oxidase-coupled assay; assay type: cell-free
[3] = Intrinsic clearance in CD1 mouse liver microsomes assessed per gram of liver at 1 uM in presence of NADPH regenerating system measured up to 45 mins by UPLC/MS/MS analysis; assay type: ADME; settings: 0.75 h
[4] = Half life in CD1 mouse blood at 1 mg/kg, iv administered as bolus dose measured up to 7 hrs by UPLC/MS/MS spectrometry analysis; assay type: ADME, organism-based
[5] = Blood clearance in CD1 mouse at 1 mg/kg, iv administered as bolus dose measured up to 7 hrs by UPLC/MS/MS spectrometry analysis; assay type: ADME, organism-based
[6] = Volume of distribution at steady state in CD1 mouse at 1 mg/kg, iv administered as bolus dose measured up to 7 hrs by UPLC/MS/MS spectrometry analysis; assay type: ADME, organism-based; settings: in vivo, read-out: Vdss
Autotaxin [7] = target: T1, Autotaxin; assay: Inhibition of human recombinant ATX using Rac-1-Palmitoyl-glycero-3-phosphocholine as substrate incubated for 2 hrs using ADHP fluorogenic peroxidase substrate by horseradish peroxidase/choline oxidase-coupled assay
[8] = Half life in CD1 mouse blood at 0.5 mg/kg, iv administered as bolus dose measured up to 7 hrs by UPLC/MS/MS spectrometry analysis; assay type: ADME, organism-based
[9] = Intrinsic clearance in human liver microsomes assessed per gram of liver at 1 uM in presence of NADPH regenerating system measured up to 45 mins by UPLC/MS/MS analysis; assay type: ADME; settings: 0.75 h
[10] = Blood clearance in CD1 mouse at 0.5 mg/kg, iv administered as bolus dose measured up to 7 hrs by UPLC/MS/MS spectrometry analysis; assay type: ADME, organism-based
[11] = Volume of distribution at steady state in CD1 mouse at 0.5 mg/kg, iv administered as bolus dose measured up to 7 hrs by UPLC/MS/MS spectrometry analysis; assay type: ADME, organism-based; settings: in vivo, read-out: Vdss

| Compound | IC50 (Autotaxin [2]) [nM] | CLH [3] [mL/min/g] | IC50 (Autotaxin [7]) [nM] | also measured |
| --- | --- | --- | --- | --- |
| COc1ccc(CNC(=O)CCc2nc3cccnc3n2Cc2ccccc2)cc1 | 8870 |  |  | IC50 (Autotaxin [1]): 40 nM |
| C[C@H](NC(=O)CCc1nc2cccnc2n1Cc1ccc(C(F)(F)F)cc1)c1ccc(Cl)cc1 | 16 | 26.5 |  | half-life [4]: 19.8 min; clearance [5]: 72 mL/min/kg; Vd [6]: 0.88 L/kg |
| C[C@H](NC(=O)OCc1nc2cccnc2n1Cc1ccc(F)cc1)c1ccc(F)cc1 | 3290 | 21.8 | 366 |  |
| O=C(CCc1nc2cccnc2n1Cc1ccccc1)NCc1ccccc1 |  |  | 1240 |  |
| C[C@H](NC(=O)NCc1nc2cccnc2n1Cc1ccc(F)cc1)c1ccc(Cl)cc1 | 414 |  |  |  |
| COc1ccc(Cn2c(CCC(=O)N[C@@H](C)c3ccccc3)nc3cccnc32)cc1 | 318 | 35 |  | half-life [8]: 10.2 min; CLH [9]: 21.4 mL/min/g; clearance [10]: 75 mL/min/kg; Vd [11]: 0.19 L/kg |
| C[C@H](NC(=O)CCc1nc2ccncc2n1Cc1ccc(OC(F)(F)F)cc1)c1ccc(Cl)cc1 | 34 | 18.1 |  | half-life [4]: 8.4 min; clearance [5]: 73 mL/min/kg; Vd [6]: 0.2 L/kg |
| C[C@H](NC(=O)CCc1nc2cccnc2n1Cc1ccc(F)cc1)c1ccc(F)cc1 | 444 |  |  |  |
| C[C@H](NC(=O)CCc1nc2cccnc2n1Cc1ccccc1)c1ccccc1 | 288 | 21.4 |  | CLH [9]: 62 mL/min/g |
| C[C@H](NC(=O)CSc1nc2cccnc2n1Cc1ccc(OC(F)(F)F)cc1)c1ccc(F)cc1 | 19 | 71.5 |  | half-life [4]: 12 min; clearance [5]: 81 mL/min/kg; Vd [6]: 0.3 L/kg |
| O=C(CCc1nc2cccnc2n1Cc1ccccc1)NCCc1ccccc1 |  |  | 3440 |  |
| O=C(CCc1nc2cccnc2n1Cc1ccccc1)NCc1ccccn1 |  |  | 11000 |  |
| O=C(CCc1nc2cccnc2n1Cc1ccccc1)NCc1cccc(F)c1 |  |  | 1250 |  |
| O=C(CCc1nc2cccnc2n1Cc1ccc(F)cc1)N[C@@H](CO)c1ccc(Cl)cc1 | 26 | 4.4 | 5 | half-life [4]: 9.6 min; clearance [5]: 73 mL/min/kg; Vd [6]: 0.2 L/kg |
| C[C@H](NC(=O)CCc1nc2ccncc2n1Cc1ccc(F)cc1)c1ccc(F)cc1 | 333 |  |  |  |
| COc1ccc(Cn2c(CCC(=O)N[C@H](C)c3ccccc3)nc3cccnc32)cc1 | 8500 |  |  |  |

From ChEMBL document CHEMBL3864162, “Discovery of potent inhibitors of the lysophospholipase autotaxin” (Bioorg Med Chem Lett, 2016)
